The values that follow come from the Kinase Knowledgebase extract (Sharma et al. 2016).

The target of test [1] is PIK3CD (Human) (UniProt O00329). The test can be described thus: Cell-Based Assay. Particulars: raji.
Test [2] has the same target. The test can be described thus: Enzyme Assay.
A further test deals with PIK3CB (Human) (UniProt P42338). In words: Enzyme Assay.
A further test deals with PIK3CG (human) (UniProt P48736). The test can be described thus: Enzyme Assay.
PIK3CG (human), sequence (P48736 whole entry, looked up): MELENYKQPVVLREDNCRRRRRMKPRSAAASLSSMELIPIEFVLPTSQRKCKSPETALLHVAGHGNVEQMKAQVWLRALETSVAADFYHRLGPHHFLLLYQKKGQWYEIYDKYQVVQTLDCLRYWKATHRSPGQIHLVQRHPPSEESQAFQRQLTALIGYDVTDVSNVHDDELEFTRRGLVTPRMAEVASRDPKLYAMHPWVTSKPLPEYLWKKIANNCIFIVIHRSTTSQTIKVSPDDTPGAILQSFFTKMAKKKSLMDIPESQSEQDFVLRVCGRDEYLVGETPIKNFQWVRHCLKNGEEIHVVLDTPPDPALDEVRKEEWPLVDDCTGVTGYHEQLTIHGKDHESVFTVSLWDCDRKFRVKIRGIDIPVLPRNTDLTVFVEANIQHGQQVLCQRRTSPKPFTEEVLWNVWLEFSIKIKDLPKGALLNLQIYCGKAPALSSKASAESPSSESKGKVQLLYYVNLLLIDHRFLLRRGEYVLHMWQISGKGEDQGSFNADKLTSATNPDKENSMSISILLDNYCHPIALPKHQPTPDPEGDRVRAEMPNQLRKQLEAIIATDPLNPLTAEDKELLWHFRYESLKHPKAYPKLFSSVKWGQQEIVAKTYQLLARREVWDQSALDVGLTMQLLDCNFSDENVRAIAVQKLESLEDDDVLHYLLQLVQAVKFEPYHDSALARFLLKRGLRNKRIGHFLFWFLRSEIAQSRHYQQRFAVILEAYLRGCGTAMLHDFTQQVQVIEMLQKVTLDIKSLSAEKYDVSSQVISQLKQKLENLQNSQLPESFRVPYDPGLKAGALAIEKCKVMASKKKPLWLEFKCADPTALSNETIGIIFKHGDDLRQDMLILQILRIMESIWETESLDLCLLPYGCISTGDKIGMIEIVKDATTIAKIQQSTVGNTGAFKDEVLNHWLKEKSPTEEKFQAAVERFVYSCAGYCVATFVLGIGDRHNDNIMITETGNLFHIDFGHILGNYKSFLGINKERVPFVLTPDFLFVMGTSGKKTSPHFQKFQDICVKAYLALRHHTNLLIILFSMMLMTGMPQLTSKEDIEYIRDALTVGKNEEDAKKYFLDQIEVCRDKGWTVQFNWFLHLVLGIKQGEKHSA

PIK3CD (Human), sequence (O00329 whole entry, looked up): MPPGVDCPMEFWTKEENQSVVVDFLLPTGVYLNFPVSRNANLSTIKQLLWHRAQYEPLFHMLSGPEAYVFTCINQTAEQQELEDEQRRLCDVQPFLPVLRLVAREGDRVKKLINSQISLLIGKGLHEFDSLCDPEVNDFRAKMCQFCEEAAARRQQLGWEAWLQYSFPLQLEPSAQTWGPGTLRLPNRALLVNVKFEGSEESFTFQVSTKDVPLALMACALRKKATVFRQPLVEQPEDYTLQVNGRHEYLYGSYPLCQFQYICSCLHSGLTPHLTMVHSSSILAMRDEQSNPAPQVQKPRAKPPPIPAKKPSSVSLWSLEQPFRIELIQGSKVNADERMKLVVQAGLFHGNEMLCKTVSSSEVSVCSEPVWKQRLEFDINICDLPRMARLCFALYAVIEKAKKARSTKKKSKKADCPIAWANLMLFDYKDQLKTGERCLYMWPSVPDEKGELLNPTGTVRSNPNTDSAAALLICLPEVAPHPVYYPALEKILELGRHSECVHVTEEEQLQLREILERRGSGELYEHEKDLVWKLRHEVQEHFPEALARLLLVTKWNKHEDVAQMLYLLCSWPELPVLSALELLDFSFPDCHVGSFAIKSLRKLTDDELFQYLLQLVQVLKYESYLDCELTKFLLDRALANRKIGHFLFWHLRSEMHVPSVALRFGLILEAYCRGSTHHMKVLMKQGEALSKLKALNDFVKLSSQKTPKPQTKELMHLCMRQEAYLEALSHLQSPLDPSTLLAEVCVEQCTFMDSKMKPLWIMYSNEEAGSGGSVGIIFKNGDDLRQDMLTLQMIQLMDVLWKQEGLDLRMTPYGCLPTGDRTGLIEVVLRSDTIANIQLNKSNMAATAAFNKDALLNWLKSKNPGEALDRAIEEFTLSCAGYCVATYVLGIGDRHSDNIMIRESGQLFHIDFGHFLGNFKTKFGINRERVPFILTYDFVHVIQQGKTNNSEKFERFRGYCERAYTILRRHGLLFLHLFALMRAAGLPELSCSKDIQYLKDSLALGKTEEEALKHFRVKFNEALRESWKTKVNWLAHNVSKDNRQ
PIK3CB (Human), sequence (P42338 whole entry, looked up): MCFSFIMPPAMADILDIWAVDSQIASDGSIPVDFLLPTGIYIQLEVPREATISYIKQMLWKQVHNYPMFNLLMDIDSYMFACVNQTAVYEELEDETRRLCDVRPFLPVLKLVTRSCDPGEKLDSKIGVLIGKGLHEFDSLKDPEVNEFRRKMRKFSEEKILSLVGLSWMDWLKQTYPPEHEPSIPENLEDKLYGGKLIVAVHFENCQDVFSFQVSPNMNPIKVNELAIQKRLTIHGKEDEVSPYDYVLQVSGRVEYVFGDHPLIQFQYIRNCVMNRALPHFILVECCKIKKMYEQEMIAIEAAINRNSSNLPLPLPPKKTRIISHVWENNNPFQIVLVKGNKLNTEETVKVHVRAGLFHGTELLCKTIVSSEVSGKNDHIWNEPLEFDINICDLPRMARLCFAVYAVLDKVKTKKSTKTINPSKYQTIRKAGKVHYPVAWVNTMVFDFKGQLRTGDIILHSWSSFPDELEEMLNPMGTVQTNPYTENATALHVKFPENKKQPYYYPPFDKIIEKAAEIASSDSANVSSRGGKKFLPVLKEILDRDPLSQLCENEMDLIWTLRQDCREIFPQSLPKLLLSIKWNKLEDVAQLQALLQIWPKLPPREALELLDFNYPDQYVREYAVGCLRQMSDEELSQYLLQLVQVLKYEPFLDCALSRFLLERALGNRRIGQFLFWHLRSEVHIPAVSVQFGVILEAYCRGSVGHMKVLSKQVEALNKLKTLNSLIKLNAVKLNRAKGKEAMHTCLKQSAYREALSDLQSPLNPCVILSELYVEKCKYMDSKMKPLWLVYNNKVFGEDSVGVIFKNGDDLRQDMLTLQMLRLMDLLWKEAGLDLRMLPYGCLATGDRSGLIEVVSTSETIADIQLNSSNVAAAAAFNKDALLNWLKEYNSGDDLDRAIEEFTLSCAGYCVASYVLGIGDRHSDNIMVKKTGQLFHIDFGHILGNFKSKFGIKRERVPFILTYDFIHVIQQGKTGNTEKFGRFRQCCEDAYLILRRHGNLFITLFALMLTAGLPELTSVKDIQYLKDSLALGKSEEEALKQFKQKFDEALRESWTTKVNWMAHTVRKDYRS

As for `Cc1scnc1C#Cc1cccc2cc([C@H](C)NC(=O)c3c(N)nn4cccnc34)n(-c3ccccc3)c(=O)c12`, the IC50 against PIK3CD (Human) [1] is 0.1 to 0.5 µM; against PIK3CD (Human) [2], 5 to 10 µM; against PIK3CB (Human) it was 5 to 10 µM; at PIK3CG (human) it was 0.1 to 0.5 µM.
For the compound `Cc1ncccc1C#Cc1cccc2cc([C@H](C)NC(=O)c3c(N)nn4cccnc34)n(-c3ccccc3)c(=O)c12`, the IC50 at PIK3CD (Human) [1] lay in the range of 1 to 10 µM; on PIK3CD (Human) [2] it was 5 to 10 µM; against PIK3CB (Human) it was 5 to 10 µM; against PIK3CG (human), 1 to 5 µM.
Take `C[C@H](NC(=O)c1c(N)nn2cccnc12)c1cc2cccc(C#Cc3cncn3C)c2c(=O)n1C1CC1`: the half-maximal inhibitory concentration (IC50) was 0.1 to 0.5 µM against PIK3CD (Human) [1], 5 to 10 µM against PIK3CD (Human) [2], 1 to 5 µM on PIK3CB (Human) and 1 to 5 µM at PIK3CG (human).
As to `C#Cc1cccc2nc([C@H](C)NC(=O)c3nccnc3N)n(-c3ccc(F)cc3)c(=O)c12`, the IC50 against PIK3CD (Human) [1] was 0.001 to 0.1 µM; against PIK3CD (Human) [2], 1 to 5 µM; at PIK3CB (Human), 1 to 5 µM; at PIK3CG (human) it was 0.001 to 0.1 µM.
As to `C[C@H](NC(=O)c1c(N)nn2cccnc12)c1cc2cccc(C#Cc3ccccn3)c2c(=O)n1-c1ccccc1`, the IC50 is 0.5 to 1 µM on PIK3CD (Human) [1], 5 to 10 µM at PIK3CD (Human) [2], 5 to 10 µM against PIK3CB (Human) and 0.1 to 0.5 µM against PIK3CG (human).
Take `C[C@H](NC(=O)c1c(N)nn2cccnc12)c1cc2cccc(C#Cc3cnn(C)c3)c2c(=O)n1-c1ccc(F)cc1`: the figures for the IC50 against PIK3CD (Human) [2], against PIK3CB (Human) and against PIK3CG (human) were 5 to 10 µM, 5 to 10 µM and 0.001 to 0.1 µM, respectively.
As to `Cc1ccncc1C#Cc1cccc2cc([C@H](C)NC(=O)c3c(N)nn4cccnc34)n(-c3ccccc3)c(=O)c12`, the IC50 lay within 1 to 10 µM on PIK3CD (Human) [1], 5 to 10 µM on PIK3CD (Human) [2], 5 to 10 µM at PIK3CB (Human) and 0.5 to 1 µM against PIK3CG (human).
For the compound `Cc1ccc(-n2c([C@H](C)NC(=O)c3c(N)nn4cccnc34)cc3cccc(C#Cc4cnn(C)c4)c3c2=O)cc1`, the results for the IC50 at PIK3CD (Human) [2], at PIK3CB (Human) and against PIK3CG (human) were 5 to 10 µM, 5 to 10 µM and 0.1 to 0.5 µM, respectively.
Consider `C[C@H](NC(=O)c1c(N)nn2cccnc12)c1cc2cccc(C#CCN3CCOCC3)c2c(=O)n1-c1ccccc1`, for which the IC50 lay within 1 to 10 µM on PIK3CD (Human) [1], 5 to 10 µM on PIK3CD (Human) [2], 5 to 10 µM against PIK3CB (Human) and 0.1 to 0.5 µM at PIK3CG (human).
In the case of `C[C@H](NC(=O)c1c(N)nn2cccnc12)c1nc2cccc(C#Cc3cnn(C)c3)c2c(=O)n1C`, the IC50 on PIK3CD (Human) [1] was in the range of 0.5 to 1 µM; against PIK3CD (Human) [2] it was 5 to 10 µM; against PIK3CB (Human), 1 to 5 µM; at PIK3CG (human), 1 to 5 µM.
Regarding `Cc1cc(C)n2nc(N)c(C(=O)N[C@@H](C)c3cc4cccc(C#Cc5cnn(C)c5)c4c(=O)n3-c3ccccc3)c2n1`, the IC50 at PIK3CD (Human) [2] lay in the range of 5 to 10 µM; on PIK3CB (Human), 5 to 10 µM; against PIK3CG (human), 0.1 to 0.5 µM.
On to `C[C@H](NC(=O)c1c(N)nn2cccnc12)c1cc2cccc(C#CC3(O)CN4CCC3CC4)c2c(=O)n1-c1ccccc1` (some centres not stated), for which the IC50 against PIK3CD (Human) [1] was in the range of 1 to 10 µM; against PIK3CD (Human) [2], 5 to 10 µM; on PIK3CB (Human), 5 to 10 µM; against PIK3CG (human) it was 0.5 to 1 µM.
Take `C[C@H](NC(=O)c1c(N)nn2cccnc12)c1cc2cccc(C#CC3CCCCC3)c2c(=O)n1-c1ccccc1`: the half-maximal inhibitory concentration (IC50) on PIK3CD (Human) [1] was in the range of 1 to 10 µM; against PIK3CD (Human) [2], 5 to 10 µM; on PIK3CB (Human), 5 to 10 µM; against PIK3CG (human), 1 to 5 µM.
`Cn1cc(C#Cc2cccc3cc(CNC(=O)c4c(N)nn5cccnc45)n(-c4ccccc4)c(=O)c23)cn1`: the 50% inhibitory concentration (IC50) at PIK3CD (Human) [2] lay in the range of 5 to 10 µM; at PIK3CB (Human), 5 to 10 µM; against PIK3CG (human) it was 1 to 5 µM.
With `C[C@H](NC(=O)c1c(N)nn2cccnc12)c1cc2cccc(C#Cc3ccn(C)n3)c2c(=O)n1-c1ccccc1`, the 50% inhibitory concentration (IC50) on PIK3CD (Human) [1] lay in the range of 0.1 to 0.5 µM; at PIK3CD (Human) [2] it was 5 to 10 µM; against PIK3CB (Human) it was 5 to 10 µM; against PIK3CG (human), 0.1 to 0.5 µM.
Consider `C[C@H](NC(=O)c1c(N)nn2cccnc12)c1cc2cccc(C#CC(C)(C)C)c2c(=O)n1-c1ccccc1`, for which the IC50 lay in the range of 1 to 10 µM on PIK3CD (Human) [1], 5 to 10 µM at PIK3CD (Human) [2], 5 to 10 µM at PIK3CB (Human) and 1 to 5 µM against PIK3CG (human).
In the case of `C[C@H](NC(=O)c1c(N)nn2cccnc12)c1cc2cccc(C#CCO)c2c(=O)n1-c1ccccc1`, the IC50 against PIK3CD (Human) [1] lay within 0.001 to 0.1 µM; at PIK3CD (Human) [2], 0.5 to 1 µM; against PIK3CB (Human) it was 1 to 5 µM; at PIK3CG (human) it was 0.001 to 0.1 µM.
On to `COC(C)C#Cc1cccc2cc([C@H](C)NC(=O)c3c(N)nn4cccnc34)n(-c3ccccc3)c(=O)c12` (some centres not stated), for which the half-inhibitory concentration (IC50) against PIK3CD (Human) [1] fell in the range of 1 to 10 µM; at PIK3CD (Human) [2], 5 to 10 µM; at PIK3CB (Human), 5 to 10 µM; at PIK3CG (human), 0.1 to 0.5 µM.
For `C[C@H](NC(=O)c1c(N)nn2cccnc12)c1cc2cccc(C#CC3CC3)c2c(=O)n1-c1ccccc1`, the IC50 against PIK3CD (Human) [1] lay within 0.1 to 0.5 µM; at PIK3CD (Human) [2] it was 1 to 5 µM; against PIK3CB (Human) it was 1 to 5 µM; at PIK3CG (human) it was 0.1 to 0.5 µM.
